Source: ChEMBL document CHEMBL5058564, “EUbOPEN Chemogenomics Library 2 (Incucyte)” (2022)

Columns and labels:
Type in all cases: toxicity, cell-based
U2OS = assay: Incucyte cell viability with U2OS; conditions: human, 10 µM, compound concentration 10 uM
HEK-293T = assay: Incucyte cell viability with HEK293T; conditions: human, 10 µM, compound concentration 10 uM
Fibroblast = assay: Incucyte cell viability with human fibroblast; conditions: 10 µM, compound concentration 10 uM
[1] = 0 h, replicate number 1, timepoint 0 hours
[2] = 6 h, replicate number 2, timepoint 6 hours
[3] = 12 h, replicate number 1, timepoint 12 hours
[4] = 12 h, replicate number 2, timepoint 12 hours
[5] = 18 h, replicate number 1, timepoint 18 hours
[6] = 18 h, replicate number 2, timepoint 18 hours
[7] = 24 h, replicate number 1, timepoint 24 hours
[8] = 24 h, replicate number 2, timepoint 24 hours
[9] = 6 h, replicate number 1, timepoint 6 hours
[10] = 0 h, replicate number 2, timepoint 0 hours
Further: unitless GR value; below 1 slowed growth and below 0 cell loss.

| Structure (SMILES) | Growth Rate (U2OS; [1]) | Growth Rate (U2OS; [4]) | Growth Rate (U2OS; [6]) | Growth Rate (HEK-293T; [9]) | Growth Rate (HEK-293T; [3]) | Growth Rate (HEK-293T; [4]) | Growth Rate (HEK-293T; [5]) | Growth Rate (HEK-293T; [6]) | Growth Rate (HEK-293T; [7]) | Growth Rate (HEK-293T; [8]) | Growth Rate (Fibroblast; [9]) | Growth Rate (Fibroblast; [2]) | Growth Rate (Fibroblast; [3]) | Growth Rate (Fibroblast; [4]) | Growth Rate (Fibroblast; [5]) | Growth Rate (Fibroblast; [6]) | Growth Rate (Fibroblast; [7]) | Growth Rate (Fibroblast; [8]) | Growth Rate (U2OS; [10]) | Growth Rate (HEK-293T; [1]) | further results |
| --- | --- | --- | --- | --- | --- | --- | --- | --- | --- | --- | --- | --- | --- | --- | --- | --- | --- | --- | --- | --- | --- |
| CC(=O)c1ccc2c(c1)[C@@H]1C=CC[C@@H]1[C@H](c1cc3c(cc1Br)OCO3)N2 | 0.33 | -0.23 | -0.33 | -0.31 | 0.01 | -0.05 | -0.14 | -0.06 | -0.12 | -0.02 | -0.85 | -0.8 | -0.78 | -0.47 | -0.76 | -0.23 | -0.54 | -0.18 | – | – | Growth Rate (U2OS; [2]): 0; Growth Rate (U2OS; [3]): 0.01; Growth Rate (U2OS; [5]): 0.03; Growth Rate (U2OS; [7]): -0.17; Growth Rate (U2OS; [8]): -0.31; Growth Rate (HEK-293T; [2]): -0.36 |
| Cl.Clc1cccc(Cl)c1NC1=NCCN1 [CLONIDINE HYDROCHLORIDE] | – | – | – | 0.49 | 0.74 | 0.54 | 0.59 | 0.58 | 0.85 | 0.63 | 0.94 | 0.45 | – | 0.46 | – | 0.62 | 0.9 | 0.47 | 0.55 | 0.99 | Growth Rate (U2OS; [9]): 0.87; Growth Rate (U2OS; [2]): 0.91; Growth Rate (U2OS; [5]): 1; Growth Rate (HEK-293T; [10]): 0.43; Growth Rate (Fibroblast; [1]): 0.82 |
| O=S(=O)(c1ccccc1)c1cnc2c(N3CCNCC3)cccc2c1 [INTEPIRDINE] | -0.78 | 0.78 | 0.82 | – | – | – | – | – | – | – | 0.23 | – | 0.57 | – | 0.61 | 0.94 | 0.42 | 0.98 | – | 1 | Growth Rate (U2OS; [2]): 0.23; Growth Rate (U2OS; [8]): 0.84; Growth Rate (HEK-293T; [10]): 0.98; Growth Rate (Fibroblast; [1]): 0.87; Growth Rate (Fibroblast; [10]): 0.36 |
| CC1(C)SSC(C)(C)[C@@H](NC(=O)[C@@H](N)Cc2ccc(O)cc2)C(=O)NCC(=O)N[C@@H](Cc2ccccc2)C(=O)N[C@H]1C(=O)O.O=C(O)C(F)(F)F | – | – | 0.98 | 0.73 | – | 0.85 | 0.85 | – | – | – | 0.67 | – | – | – | – | – | 0.94 | – | -0.57 | 0.77 | Growth Rate (U2OS; [2]): 0.94; Growth Rate (U2OS; [8]): 0.94; Growth Rate (Fibroblast; [1]): 0.24; Growth Rate (Fibroblast; [10]): 0.08 |
| O=c1ccn([C@@H]2O[C@H](COP(=O)([O-])OP(=O)([O-])OP(=O)([O-])O)[C@@H](O)[C@H]2O)c(=O)[nH]1.[Na+].[Na+].[Na+] | 0.49 | 0.94 | 0.93 | 0.64 | 0.84 | 0.64 | 0.92 | 0.75 | 0.85 | 0.72 | 0.2 | 0.66 | 0.12 | 0.75 | 0.29 | 0.88 | 0.13 | 0.78 | 0.48 | 0.09 | Growth Rate (U2OS; [9]): 0.21; Growth Rate (U2OS; [2]): 0.83; Growth Rate (U2OS; [3]): 0.6; Growth Rate (U2OS; [5]): 0.83; Growth Rate (U2OS; [7]): 0.99; Growth Rate (U2OS; [8]): 0.94; Growth Rate (HEK-293T; [10]): 0.62; Growth Rate (HEK-293T; [2]): 0.41; Growth Rate (Fibroblast; [10]): 0.81 |
| CC[C@H]1OC(=O)[C@H](C)[C@@H](O[C@H]2C[C@@](C)(OC)[C@@H](O)[C@H](C)O2)[C@H](C)[C@@H](O[C@@H]2O[C@H](C)C[C@H](N(C)C)[C@H]2O)[C@@]2(C)CC(C)=C(O2)[C@H](C)[C@@H](O)[C@]1(C)O | – | – | 0.96 | – | – | 0.77 | – | 0.75 | – | 0.82 | 0.46 | 0.95 | 0.38 | 0.44 | 0.44 | – | 0.64 | – | – | – | Growth Rate (HEK-293T; [2]): 0.55 |
| CCC(=O)N1CC[C@H](Nc2ncnc3c2CN(c2cnc(OC)c(C(F)(F)F)c2)CC3)C1 [LENIOLISIB] | 0.57 | 0.58 | 0.79 | 0.27 | 0.69 | 0.28 | 0.81 | 0.66 | 0.96 | 0.71 | -0.68 | 0.91 | 0.26 | – | 0.75 | – | 0.72 | – | 0.52 | – | Growth Rate (U2OS; [9]): 0.65; Growth Rate (U2OS; [2]): 0.66; Growth Rate (U2OS; [5]): 0.83; Growth Rate (U2OS; [7]): 0.81; Growth Rate (U2OS; [8]): 0.79; Growth Rate (HEK-293T; [2]): -0.14 |
| Cc1ccc(-c2ccc(F)cc2COc2ccc(CCC(=O)O)cc2)cc1 | -0.34 | – | – | – | – | – | – | – | – | – | 0.23 | – | 0.58 | – | 0.18 | – | 0.42 | – | -0.59 | 0.43 | Growth Rate (HEK-293T; [10]): 0.55; Growth Rate (Fibroblast; [10]): 0.45 |
| O=C(Nc1cc(C(F)(F)F)ccc1N1CCN(Cc2ccccn2)CC1)c1ccc(-c2ccncc2)o1 | -0.79 | 0.93 | 0.83 | 0.44 | -0.16 | -0.05 | -0.1 | -0.19 | -0.03 | -0.11 | 0.13 | -0.21 | -0.19 | 0.06 | 0.1 | 0.16 | 0.21 | 0.56 | -1 | 0.95 | Growth Rate (U2OS; [8]): 0.76; Growth Rate (HEK-293T; [10]): 0.73; Growth Rate (HEK-293T; [2]): 0.41; Growth Rate (Fibroblast; [1]): 0.86 |
| CCN(Cc1ccncc1)C(=O)C(CO)c1ccccc1 (stereo unspecified) [TROPICAMIDE] | 0.73 | 0.99 | 0.92 | 0.92 | 0.97 | 0.95 | 0.93 | 0.83 | 0.88 | 1 | – | – | – | – | – | – | – | – | 0.44 | 0.72 | Growth Rate (U2OS; [9]): 0.58; Growth Rate (Fibroblast; [1]): 0.46; Growth Rate (Fibroblast; [10]): -0.24 |
| CC[C@@H](C)Nc1nc(C)nc2c(-c3ccc(OC)nc3C)c(C)nn12 [PEXACERFONT] | – | – | – | – | – | 0.9 | 0.93 | – | 0.84 | – | -0.25 | -0.51 | -0.18 | 0.49 | -0.19 | 0.94 | -0.13 | 1 | -1 | 0.85 | Growth Rate (U2OS; [9]): 1; Growth Rate (U2OS; [3]): 0.45; Growth Rate (U2OS; [5]): 0.67; Growth Rate (HEK-293T; [10]): 0.62; Growth Rate (Fibroblast; [10]): 0.28 |
| O=c1c2cccn2c2ccccc2n1CCCN1CCC(c2ccc(Cl)cc2)CC1 | – | 0.89 | 0.89 | – | 0.61 | 0.39 | 0.56 | 0.55 | 0.76 | 0.9 | -0.55 | -0.88 | -0.52 | -0.58 | -0.55 | -0.28 | -0.3 | -0.26 | -1 | – | Growth Rate (U2OS; [8]): 0.8; Growth Rate (HEK-293T; [2]): 0.34 |
| COc1cc2c(Oc3ccc(NC(=O)C4(C(=O)Nc5ccc(F)cc5)CC4)cc3F)ccnc2cc1OCCCN1CCOCC1 [FORETINIB] | – | -0.03 | 0.01 | -0.97 | -0.79 | -0.89 | -0.65 | -0.82 | -0.54 | -0.7 | -0.99 | -1 | -0.98 | -0.95 | -0.93 | -0.9 | -0.88 | -0.91 | – | – | Growth Rate (U2OS; [9]): 0.16; Growth Rate (U2OS; [2]): -0.08; Growth Rate (U2OS; [3]): -0.1; Growth Rate (U2OS; [5]): -0.03; Growth Rate (U2OS; [7]): 0; Growth Rate (HEK-293T; [2]): -0.98 |
